According to US11618747B2, “LXR modulators with bicyclic core moiety” (OrsoBio, Inc., priority 2018, dated 2023):

Experiments:
[1] = molecular target: T1, full length (FL) LXRα (Homo sapiens, UniProt Q13133); assay: LXR Gal4 reporter transient transfection assay (FL-M2H Gal4α); format: cell-based; conditions: HEK293 cells, full length LXRα; read-out: FL-M2H Gal4α (EC50 range)
T1 construct: the full length (FL) proteins of LXRα (amino acids 1-447); NP005684; expressed in transfected cells; host or cells: HEK293
T1 sequence (Q13133 1-447): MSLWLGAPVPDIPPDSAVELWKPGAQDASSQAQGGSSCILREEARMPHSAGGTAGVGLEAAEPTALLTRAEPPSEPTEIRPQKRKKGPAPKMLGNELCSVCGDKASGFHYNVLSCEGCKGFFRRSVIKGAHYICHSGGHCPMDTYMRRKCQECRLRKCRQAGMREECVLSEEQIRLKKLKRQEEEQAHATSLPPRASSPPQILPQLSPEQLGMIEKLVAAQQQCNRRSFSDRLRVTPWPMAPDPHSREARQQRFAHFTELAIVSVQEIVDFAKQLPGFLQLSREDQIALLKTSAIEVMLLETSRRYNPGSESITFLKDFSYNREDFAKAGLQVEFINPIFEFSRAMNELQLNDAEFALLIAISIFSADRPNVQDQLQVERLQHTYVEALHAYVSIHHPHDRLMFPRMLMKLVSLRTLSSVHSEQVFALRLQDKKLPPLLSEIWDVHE
Method in brief: (§1)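 Luminescence readout: Firefly luciferase driven by GAL4 response elements reports LXR–cofactor interaction, normalised against cotransfected Renilla luciferase. The system used HEK293 cells expressing LXR full length or ligand-binding domain fused to the NFkB activation domain, with SRC1 or NCoR domains on GAL4 DBD; compound exposure was 16 h.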

[2] = molecular target: T2, full length (FL) LXRβ (Homo sapiens, UniProt P55055, DUP175-175); assay: LXR Gal4 reporter transient transfection assay (FL-M2H Gal4β); format: cell-based; conditions: HEK293 cells, full length LXRβ; read-out: FL-M2H Gal4β (EC50 range)
T2 construct: the full length (FL) proteins of LXRα (amino acids 1-447); NP005684; NP009052; expressed in transfected cells; host or cells: HEK293
T2 sequence (P55055 with tags, fused parts or gaps DUP175-175): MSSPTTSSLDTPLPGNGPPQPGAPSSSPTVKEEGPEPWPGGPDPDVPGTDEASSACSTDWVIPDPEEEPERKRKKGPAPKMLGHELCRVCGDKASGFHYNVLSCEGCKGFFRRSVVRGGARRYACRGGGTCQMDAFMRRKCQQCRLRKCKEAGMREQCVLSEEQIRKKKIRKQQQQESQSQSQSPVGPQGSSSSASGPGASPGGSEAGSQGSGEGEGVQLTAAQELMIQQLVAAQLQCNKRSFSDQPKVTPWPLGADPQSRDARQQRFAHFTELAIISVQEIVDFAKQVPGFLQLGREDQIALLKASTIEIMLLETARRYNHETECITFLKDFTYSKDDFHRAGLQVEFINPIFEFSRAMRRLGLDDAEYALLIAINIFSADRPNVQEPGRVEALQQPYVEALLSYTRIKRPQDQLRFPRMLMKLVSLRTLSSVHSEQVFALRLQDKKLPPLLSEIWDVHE
Method in brief: as §1

[3] = molecular target: T3, LXRβ ligand-binding domain (Homo sapiens, UniProt P55055, DUP175-175); assay: TR-FRETβ activity assay (NCoA3 coactivator peptide recruitment); format: biochemical; conditions: TR-FRET, 1 μM 24(S)-25-epoxycholesterol prestimulation; read-out: FRETβ (EC50 range)
T3 construct: amino acids 156-461; NP009052; made in house; host or cells: E. coli
T3 sequence (P55055 with tags, fused parts or gaps DUP175-175 limits assumed): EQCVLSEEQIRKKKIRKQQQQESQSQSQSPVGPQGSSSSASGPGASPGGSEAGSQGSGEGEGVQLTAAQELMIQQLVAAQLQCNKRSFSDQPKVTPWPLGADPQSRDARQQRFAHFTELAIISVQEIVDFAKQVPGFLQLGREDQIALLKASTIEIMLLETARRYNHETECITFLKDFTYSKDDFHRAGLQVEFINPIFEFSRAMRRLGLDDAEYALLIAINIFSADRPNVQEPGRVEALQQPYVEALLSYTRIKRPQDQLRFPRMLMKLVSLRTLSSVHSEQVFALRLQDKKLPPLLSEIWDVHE
Method in brief: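 GST-tagged human LXRβ LBD (aa 156-461, E. coli) at 76 nM with 400 nM biotinylated NCoA3 peptide in Tris/HCl pH 6.8, 240 mM KCl, BSA, 0.002% Triton-X-100, plus 1 μM 24(S)-25-epoxycholesterol as prestimulating agonist. Compounds at 50 μM down to 0.002 μM, 1 h at 4 °C. Coactivator recruitment by TR-FRET (Tb cryptate/XL665, 615/665 nm), triplicates.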

| Compound | EC50 [1] [µM] | EC50 [2] [µM] | EC50 [3] [µM] |
| --- | --- | --- | --- |
| O=C(O)c1ccc(-c2cccc(-c3c(-c4cccc5oncc45)c4cc(F)ccc4n3S(=O)(=O)c3ccc(C(F)F)cc3)c2)c(Cl)c1 [3/69] | 0.1 to 1 | 0.1 to 1 | 0.1 to 1 |
| N#Cc1cccc(C#N)c1-c1c(-c2cccc(-c3ccc(C(=O)O)cc3Cl)c2)n(S(=O)(=O)c2ccc(C(F)F)cc2)c2cnc(O)cc12 [3/70] | 0.1 to 1 | 0.1 to 1 | 0.1 to 1 |
| N#Cc1cccc(C#N)c1-c1c(-c2cccc(-c3c(F)cc(OCC(=O)O)cc3F)c2)n(S(=O)(=O)c2ccc(C(F)F)cc2)c2ccc(F)cc12 [3/71] | < 0.1 | < 0.1 | < 0.1 |
| CC(O)(C(=O)O)c1cc(F)c(-c2cccc(-c3c(-c4c(C#N)cccc4C#N)c4cc(F)ccc4n3S(=O)(=O)c3ccc(C(F)F)cc3)c2)c(F)c1 (stereo not drawn) [3/72] | < 0.1 | < 0.1 | < 0.1 |
| Cc1ccc(S(=O)(=O)n2c(-c3cccc(C4CC4C(=O)O)c3)c(-c3ccsc3C#N)c3ccncc32)cc1 (stereo not drawn) [4/1] | 0.1 to 1 | < 0.1 | 1 to 10 |
| Cc1ccc(S(=O)(=O)n2c(-c3cccc(C4CC4C(=O)O)c3)c(-c3ccsc3C#N)c3cccnc32)cc1 (stereo not drawn) [4/2] | 0.1 to 1 | 0.1 to 1 | 1 to 10 |
| Cc1ccc(S(=O)(=O)n2c(-c3cccc(N4CC(C(=O)O)C4)c3)c(-c3ccsc3C#N)c3sccc32)cc1 [4/3] | < 0.1 | < 0.1 | 1 to 10 |
| Cc1ccc(S(=O)(=O)n2c(-c3cccc(-c4ccc(CO)c(S(=O)(=O)CC(=O)O)c4)c3)c(-c3ccsc3C#N)c3ccccc32)cc1 [5/1] | 1 to 10 | 0.1 to 1 | 0.1 to 1 |
| Cc1ccc(S(=O)(=O)n2c(-c3cccc(C45CC(C(=O)O)(C4)C5)c3)c(-c3ccsc3C#N)c3ccccc32)cc1 [5/2] | 0.1 to 1 | 0.1 to 1 | 0.1 to 1 |
| Cc1ccc(S(=O)(=O)n2c(-c3cccc(C#CC(C)(C)C(=O)O)c3)c(-c3ccsc3C#N)c3cc(F)ccc32)cc1 [5/4] | 0.1 to 1 | < 0.1 | 1 to 10 |
| Cc1ccc(S(=O)(=O)n2c(-c3cccc(-n4ccc(C(=O)O)cc4=O)c3)c(-c3ccsc3C#N)c3cc(F)ccc32)cc1 [5/5] | 0.1 to 1 | 0.1 to 1 | 0.1 to 1 |
| Cc1ccc(S(=O)(=O)n2c(-c3ccnc(-c4ccc(C(=O)O)cc4)c3)c(-c3ccsc3C#N)c3cc(F)ccc32)cc1 [5/6] | < 0.1 | < 0.1 | 0.1 to 1 |
| N#Cc1sccc1-c1c(-c2cccc(N3CC(C(=O)O)C3)c2)n(S(=O)(=O)c2ccc(Cl)cc2)c2ccc(F)cc12 [5/7] | 0.1 to 1 | < 0.1 | 0.1 to 1 |
| COc1ccc(S(=O)(=O)n2c(-c3cccc(N4CC(C(=O)O)C4)c3)c(-c3ccsc3C#N)c3cc(F)ccc32)cn1 [5/8] | 0.1 to 1 | 0.1 to 1 | 0.1 to 1 |
| Cc1ccc(S(=O)(=O)n2c(-c3cccc(N4CC[C@@H](C(=O)O)C[C@H]4C)c3)c(-c3ccsc3C#N)c3cc(F)ccc32)cc1 [5/9] | 0.1 to 1 | < 0.1 | 0.1 to 1 |
| O=C(O)c1ccc(-c2cccc(-c3c(-c4ncccc4N4CC(O)C4)c4cc(F)ccc4n3S(=O)(=O)c3ccc(C(F)F)cc3)c2)c(Cl)c1 [5/10] | 0.1 to 1 | 0.1 to 1 | 1 to 10 |
| N#Cc1sccc1-c1c(-c2cccc(C3CC3C(=O)NO)c2)n(S(=O)(=O)c2ccc(Cl)cc2)c2ccccc12 (stereo not drawn) [6/1] | < 0.1 | < 0.1 | 0.1 to 1 |
| CC(C)(C)OC(=O)CNC(=O)c1ccc(-c2cccc(-c3c(-c4c(C#N)cccc4C#N)c4cc(F)ccc4n3S(=O)(=O)c3ccc(C(F)F)cc3)c2)c(Cl)c1 [6/3] | < 0.1 | < 0.1 | < 0.1 |
| Cc1ccc(S(=O)(=O)n2c(-c3cccc(-c4ccc(CN(C)C)cc4)c3)c(-c3ccsc3C#N)c3cc(F)ccc32)cc1 [8/1] | < 0.1 | < 0.1 | 0.1 to 1 |
